Data as given in paper PMC4962298 (Research in Pharmaceutical Sciences, 2016).

Columns and labels:
[1] = tested on: P-gp expression in Caco-2 cells; assay: Western blot analysis of P-gp expression; type: cell-based; conditions: 48 h
[2] = tested on: intestinal P-gp-mediated digoxin transport; assay: In situ rat single-pass intestinal perfusion; type: in vivo; conditions: for increase of digoxin Peff relative to digoxin alone: rat SPIP
[3] = 1 μM drug, not statistically significant

**Q.** How did the “P-gp protein levels (P-gp/β-actin) relative to the untreated control” value ([1]; 500 μM drug) turn out when `Cc1ccc(S(=O)(=O)NC(=O)NN2CC3CCCC3C2)cc1` (stereo not drawn) [gliclazide] was run?
**A.** The value was “decreased”.

**Q.** What about the “increase of digoxin Peff relative to digoxin alone” value ([2]; 0.1 μM drug, significant) of the same compound?
**A.** Its value is “about 59%”.

**Q.** What about the “increase of digoxin Peff relative to digoxin alone” value ([2]; 10 μM drug, significant) of the same compound?
**A.** The value was ~76%.

**Q.** And the “increase of digoxin Peff relative to digoxin alone” value ([2]; 500 μM drug, significant)?
**A.** Its value is ~153%.

**Q.** What does the source list for `CCc1ccc(CCOc2ccc(CC3SC(=O)NC3=O)cc2)nc1` (stereo not drawn) [pioglitazone]?
**A.** P-gp protein levels (P-gp/β-actin) relative to the untreated control ([1]; 300 μM drug): decreased; increase of digoxin Peff relative to digoxin alone [2, 3]: about 38%; increase of digoxin Peff relative to digoxin alone ([2]; 300 μM drug, P < 0.01): ~100%

**Q.** How did the “Peff of digoxin (20 μM) alone” value ([2]; rat jejunum SPIP, digoxin 20 μM, no inhibitor, n = 3, mean ± SD) turn out when `C[C@H]1O[C@@H](O[C@H]2[C@@H](O)C[C@H](O[C@H]3[C@@H](O)C[C@H](O[C@H]4CC[C@@]5(C)[C@H](CC[C@@H]6[C@@H]5C[C@@H](O)[C@]5(C)[C@@H](C7=CC(=O)OC7)CC[C@]65O)C4)O[C@@H]3C)O[C@@H]2C)C[C@H](O)[C@@H]1O` [digoxin] was run?
**A.** Its value is 3.4 ± 0.8 × 10^-5cm/s.

**Q.** Which “P-gp protein levels (P-gp/β-actin) relative to the untreated control” value ([1]; 7000 μM drug) does the source give for `CN(C)C(=N)N=C(N)N` [metformin] here?
**A.** Its value is “decreased”.

**Q.** What about the “increase of digoxin Peff relative to digoxin alone” value [2, 3] of the same compound?
**A.** The value was “about 44%”.

**Q.** And the “increase of digoxin Peff relative to digoxin alone” value ([2]; 100 μM drug, P < 0.01)?
**A.** The value was 117.6%.

**Q.** And the “increase of digoxin Peff relative to digoxin alone” value ([2]; 7000 μM drug, P < 0.01)?
**A.** The value was 167.6%.
